# Measurements published in patent US8252832B2, “Kinesin inhibitors as cancer therapeutics” (Novartis AG, priority 2007, dated 2012).
# Like-named read-outs stand apart in the source and are kept apart here.
# Test system: NCI60 panel of cell lines
# Test: CellTiter-Glo, NCI60 panel, mean of panel
# Type: cell-based
# Text: Identification of tumor types that are the most sensitive to the KSP inhibitors of the present invention can be accomplished using an unbiased approach that uses several cell-based assays. The assays chosen were as follows: • CellTiter-Glo®. This is an assay designed to measure ATP concentration in a cell culture, and can be correlated to cell number. Briefly CellTiter-Glo® (Promega Corporation) is a homogeneous method using the single CellTiter-Glo® reagent to detect ATP wherein ATP in the assay drives the activity of a thermostable luciferase to create a luminescent signal which can then be measured and correlated with the number of viable cells. Briefly, for adherent cells, 1,000 to 5,000 cells/well were plated in 96-well plates (100 μl/well) and let to adhere for 24 hours before being treated with drug. For non-adherent cells, 1,000 to 10,000 cells/well were plated in 96-well plates (100 μl/well) and immediately treated with drug. Drug dilutions were prepared in DMSO at 1000 times the final concentration. These dilutions were then diluted 1/100 in growth media before being added to the cells (11 μl/well) to achieve the desired final concentration. […] The enzymatic reaction is coupled to a chemical reaction that uses a tetrazolium salt to form a formazan that is red and can be detected by its absorbance at 490 nm. […]
compound,measurement,setting,value
CC(C)(C)[C@H](c1nc(-c2cc(F)ccc2F)cn1Cc1ccccc1)N(CC[C@H](N)CF)C(=O)CO [Compound IIa],GI50,"GI50 in nM, read-out: Log(GI50), arithmetic mean of panel (converted)",2.14 nM
same,GI50,"read-out: GI50, geometric mean of panel",2.14 nM
